# Experimental data from PubChem BioAssay (NCI).
#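 These data come from cells grown in 96-well plates and exposed to compound for 48 hours at five concentrations. TGI marks complete inhibition of growth.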
# Test system: SN12K1 renal
# Experiment: DTP human tumour cell line panel, 48 h
compound,measurement,value
O=C1C(=O)c2ccccc2C(O)=C1CC=C(Cl)Cl,TGI,113 µM
